Earlier results, collected in US11904070B2, “Tissue scaffold and scaffold composition” (Locate Therapeutics Limited, priority 2017, dated 2024).

details: at 25° C.

Compound	Solubility in water
C[S+](C)[O-] [DMSO]	Miscible
CCO [EtOH, Ethanol]	Miscible
OCC(O)CO [Glycerol]	Miscible
CN1CCCC1=O [NMP, N-Methyl-2-pyrrolidone]	Miscible
CC(=O)OCC(COC(C)=O)OC(C)=O [Triacetin, triacetin]	5.8 % w/v
polyethylene glycol 400 [PEG400]	Miscible
